This note sets out measurements from patent US20220362276A1, “Small Molecule Inhibitors of Viral Replication” (The Trustees of Princeton University, priority 2019, published 2022).

“Also recorded” adds a separate entry of the source.

The test system of assay [1] is YFV17D-Gluc-BSD-Ires (YFV17D). The assay is classed as cell-based, yellow fever virus 17-D vaccine strain.
In the next assay the target is T1, STOML2 (Homo sapiens, UniProt Q9UJZ1).
T1 sequence (Q9UJZ1 29-356): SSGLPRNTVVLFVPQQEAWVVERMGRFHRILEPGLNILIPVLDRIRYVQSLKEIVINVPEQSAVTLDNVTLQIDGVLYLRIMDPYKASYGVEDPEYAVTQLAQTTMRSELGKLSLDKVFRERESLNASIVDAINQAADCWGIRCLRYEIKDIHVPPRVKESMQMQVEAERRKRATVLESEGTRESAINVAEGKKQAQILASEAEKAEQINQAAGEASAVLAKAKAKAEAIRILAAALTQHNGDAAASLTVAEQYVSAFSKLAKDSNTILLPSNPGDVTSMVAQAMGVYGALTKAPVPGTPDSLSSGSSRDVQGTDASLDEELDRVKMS
Put plainly: Two-dimensional thermal proteome profiling (CETSA) in crude cell extract. To be noted: isocotoin 0.5-30 μM, 37-66.3 °C.

In another assay the target is T2, ABHD10 (Homo sapiens, UniProt Q9NUJ1).
T2 sequence (Q9NUJ1 53-306): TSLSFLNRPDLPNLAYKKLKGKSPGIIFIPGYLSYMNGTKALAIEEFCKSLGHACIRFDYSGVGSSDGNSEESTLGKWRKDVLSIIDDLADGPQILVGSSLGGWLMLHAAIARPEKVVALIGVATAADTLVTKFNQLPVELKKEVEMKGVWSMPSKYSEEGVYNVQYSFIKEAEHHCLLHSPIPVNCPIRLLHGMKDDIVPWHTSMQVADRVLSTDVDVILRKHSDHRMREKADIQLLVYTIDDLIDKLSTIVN
The description is as above. To be noted: isocotoin 0.5-30 μM, 37-66.3 °C.

The subject of the next assay is p6/Gluc[F470S]. Put plainly: Dose titration against mutant replicon p6/Gluc[F470S].
A further assay has as its target T3, OTC (Homo sapiens, UniProt P00480).
T3 sequence (P00480 33-354): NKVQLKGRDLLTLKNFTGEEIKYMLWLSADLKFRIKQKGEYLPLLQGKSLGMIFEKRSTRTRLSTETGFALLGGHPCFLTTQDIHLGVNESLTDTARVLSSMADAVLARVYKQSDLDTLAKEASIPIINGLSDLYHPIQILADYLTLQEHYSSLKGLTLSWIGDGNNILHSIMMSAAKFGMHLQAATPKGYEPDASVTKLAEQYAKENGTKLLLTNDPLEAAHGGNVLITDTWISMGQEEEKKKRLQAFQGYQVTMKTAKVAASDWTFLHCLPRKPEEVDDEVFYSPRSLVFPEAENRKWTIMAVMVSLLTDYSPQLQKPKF
As to the kind of experiment: Two-dimensional thermal proteome profiling (CETSA) in crude cell extract. The settings on record: isocotoin 0.5-30 μM, 37-66.3 °C.

Turning to `COc1cc(O)cc(O)c1C(=O)c1ccccc1` [isocotoin, 4-benzoyl-5-methoxybenzene-1,3-diol], in assay [1], the “inhibition of YFV17D replication, in words” value is on record as “dose-dependent inhibitory effects; also recorded: to a greater extent than ribavirin”. Besides, the “soluble protein fraction of STOML2” value at STOML2 is recorded as “among hits showing the greatest increase in soluble protein fraction”. The “soluble protein fraction of ABHD10” value on ABHD10 is “among hits showing the greatest increase in soluble protein fraction”. Besides, the “sensitivity of p6/Gluc[F470S], in words” value with p6/Gluc[F470S] is given as “higher sensitivity to isocotoin than to ribavirin”. Besides, the “soluble protein fraction of OTC” value at OTC is recorded as “among hits showing the greatest increase in soluble protein fraction”.
